In patent US5840696A (priority 1997, dated 1998):

Assays:
[1] = tested on: rat kidney; assay: site of infusion (right renal artery, suprarenal and infrarenal aorta, intravenous) and urine flow rate; type: in vivo; conditions: direct right renal arterial administration
[2] = tested on: forskolin-stimulated cAMP production; conditions: literature (4,5); cited from earlier work
[3] = target: T1, central kappa-opioid receptors (Rattus norvegicus, UniProt P34975); assay: renal responses to i.c.v. peptide in rats pre-treated i.c.v. with nor-binaltorphimine; type: in vivo; conditions: peptide 10 μg i.c.v.; nor-binaltorphimine 1 μg i.c.v.
T1 construct: Anesthetized male Sprague-Dawley rats; from tissue; host or cells: central nervous system of conscious male Sprague-Dawley rats (in vivo, lateral cerebral ventricle injection)
T1 sequence (P34975 whole entry): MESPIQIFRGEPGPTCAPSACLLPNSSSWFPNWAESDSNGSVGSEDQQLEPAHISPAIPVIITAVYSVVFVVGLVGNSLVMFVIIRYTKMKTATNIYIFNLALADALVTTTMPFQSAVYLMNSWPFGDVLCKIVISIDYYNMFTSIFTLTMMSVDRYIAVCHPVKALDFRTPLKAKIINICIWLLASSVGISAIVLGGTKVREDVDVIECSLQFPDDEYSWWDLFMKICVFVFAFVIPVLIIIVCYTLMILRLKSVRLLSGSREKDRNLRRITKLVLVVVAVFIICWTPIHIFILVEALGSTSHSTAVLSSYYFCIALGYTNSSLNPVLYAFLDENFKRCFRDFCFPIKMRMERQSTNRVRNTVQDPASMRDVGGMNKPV
Text: Abbreviations are V, urine flow rate and UNa V, urinary sodium excretion.
For comparative purposes, the renal responses produced by central administration of the endogenous opioid peptide, dynorphin A, were also studied i.c.v.
(§1) Anesthetized male Sprague-Dawley rats (275-300 g, Sprague-Dawley, Inc., Indianapolis, Ind.) were implanted with chronic arterial and venous cannulas and a bladder catheter in accordance with previously published methods (10, 12). For experiments in which drugs were administered i.c.v., a stainless steel cannula was stereotaxically implanted into the right lateral ventricle of rats under anesthesia at least 5-7 days prior to experimentation (11). On the morning of the study rats were placed in a rat holder which permits forward and backward movement and allows for collection of urine from the bladder catheter. Conscious rats were then infused i.v. with isotonic saline (50 μl/min) for the duration of the experiment. The arterial cannulae was then flushed and attached to a pressure transducer (Statham P23Db) and the urinary bladder catheter led to a collection beaker. After equilibration and stabilization of urine flow rate and urinary sodium excretion (approximately 2-3 hours) the experimental protocol described in each figure legend commenced. […]

[4] = tested on: conscious Sprague-Dawley rats; assay: intravenous infusion of nociceptin in conscious chronically instrumented rats: cardiovascular and renal responses; type: in vivo, rat; conditions: i.v. infusion 20 μg/kg/min
Protocol: (§2) Anesthetized male Sprague-Dawley rats (275-300 g, Sprague-Dawley, Inc., Indianapolis, Ind.) were implanted with chronic arterial and venous cannulas and a bladder catheter in accordance with previously published methods (10, 12). For experiments in which drugs were administered i.c.v., a stainless steel cannula was stereotaxically implanted into the right lateral ventricle of rats under anesthesia at least 5-7 days prior to experimentation (11). On the morning of the study rats were placed in a rat holder which permits forward and backward movement and allows for collection of urine from the bladder catheter. Conscious rats were then infused i.v. with isotonic saline (50 μl/min) for the duration of the experiment. The arterial cannulae was then flushed and attached to a pressure transducer (Statham P23Db) and the urinary bladder catheter led to a collection beaker. After equilibration and stabilization of urine flow rate and urinary sodium excretion (approximately 2-3 hours) the experimental protocol described in each figure legend commenced. Intravenous and i.c.v. stock solutions of nociceptin and nor-binaltorphimine were prepared fresh in isotonic saline vehicle. […] Animal experimentation and care procedures were in accordance with the National Institutes of Health guidelines for the care and use of animals.
Statistical significance was determined by a repeated measure analysis of variance followed by a Bonferroni multiple comparisons test; asterisks denote a significant difference (p<0.05) from the respective group control.

[5] = tested on: conscious Sprague-Dawley rats; assay: i.v. bolus administration of 30 μg nociceptin in conscious rats; type: in vivo, rat; conditions: i.v. bolus 30 μg
Protocol: (§3) Abbreviations are HR, heart rate; MAP, mean arterial pressure; V, urine flow rate; and UNa V, urinary sodium excretion. Statistical significance within each group was determined by a repeated measures analysis of variance followed by a Bonferroni multiple comparisons test; asterisks (a, b, or c) denote a significant change (p<0.05) from control within each group.
as §1, with “beaker.” for “beaker. After equilibration and stabilization of urine flow rate and urinary sodium excretion (approximately 2-3 hours) the experimental protocol described in each figure legend commenced.”

[6] = tested on: conscious rats; assay: lower-dose i.v. infusion of nociceptin (50 and 166 nanog/Kg/min) in conscious rats, renal function; type: in vivo, rat
Text: These marked increases in urine flow rate occurred at doses approximately 120 fold lower than previously reported by Kapusta et al. (17). In order to confirm these more recent and complete studies of the present invention, nociceptin was obtained from three commercially available sources, Phoenix Pharmaceutical, Bachem Chemical and Peninsula Laboratories. […] Nociceptin from each of the sources above was studied at a single infusion rate in each group of six rats. […] These increases in urine flow were accompanied by a decrease in the excretion of urinary sodium (UNA V) as reported earlier (17).

[7] = tested on: mice; conditions: administration to mice, literature (4,5); cited from earlier work
[8] = tested on: conscious and pentobarbital-anesthetized rats; assay: influence of pentobarbital anesthesia on renal and vascular effects of nociceptin; type: in vivo, rat
Text: N=number of rats. *≤0.05 significant when compared using ANOVA.
N=number of animals. *≤0.05 when ANOVA used statistical comparison.

[9] = tested on: conscious Sprague-Dawley rats; assay: intracerebroventricular (i.c.v.) injection in conscious rats: cardiovascular and renal responses; type: in vivo, rat
Protocol: as §3, §2

[10] = tested on: isolated rat aortic vascular rings; assay: vasorelaxant response of isolated rat aortic rings in vitro precontracted with U46619
Protocol: Aortic rings were precontracted with U46619, a thromboxane A2 mimic.
Rat aortic rings in vitro (with intact endothelium) were precontracted with […], a thromboxane A2 mimic.
Male rats (250-350g) were anesthetized with pentobarbital sodium (30 mg/Kg i.p). The rat lungs were quickly removed and immersed in cold (4° C.) Krebs-Henseleit (K-H) solution (composition mM: NaCl 118, KCl 4.7, CaCl2 2.5, KH2 PO4 1.2, NaHCO3 25, MgSO4 1.2, and dextrose 10). Pulmonary arteries (PA) were isolated and excess fat and connective tissue were removed. Vessels were cut into rings of about 2.5-3 mm in length and were mounted in organ baths containing 5 ml K-H solution. Two stainless steel hooks were inserted into the lumen of the pulmonary artery (PA), one was fixed while the other was connected to a transducer. The tissue bath solution was maintained at 37° C. and bubbled with a 95% O2 -5%CO2 mixture. The pulmonary arteries were equilibrated for 90 min with three changes of K-H solution and an optimal tension of 1 gr. applied. Contractions were measured isometrically with a force displacement transducer (FTO3, Grass, USA) and were recorded on a Grass model 7 polygraph. The contractile ability of each ring was then examined by exposure to 60 mM KCl, then washed and allowed to dilate to baseline tension. […] The integrity of the endothelium was determined by obtaining a maximal vasorelaxant response to ACh. […]

[11] = tested on: constitutive nitric oxide synthase (cNOS); assay: influence of L-NAME on urine flow rate responses in conscious rats; conditions: L-NAME 30 mg/Kg i.v., 45 min before infusion
[12] = tested on: intact-chest, anesthetized rats; assay: bolus injection into right atrium versus left atrium, systemic arterial pressure (first-pass lung transit); type: in vivo, rat; conditions: inferred from right versus left atrial injection
Text: Such a hemodynamic profile would be particularly desireable in patients experiencing congestive heart failure since pulmonary vasodilation would be expected to enhance resolution of pulmonary edema and systemic vasodilation (i.e. afterload reduction) would be expected to enhance myocardial performance.

[13] = tested on: systemic vascular bed of the anesthetized rat; conditions: literature (18); cited from earlier work
[14] = i.v. infusion 50 and 166 nanog/Kg/min

CC(C)C[C@H](NC(=O)[C@H](CCCCN)NC(=O)[C@H](CCCN=C(N)N)NC(=O)[C@H](C)NC(=O)[C@H](CO)NC(=O)[C@H](CCCCN)NC(=O)[C@H](CCCN=C(N)N)NC(=O)[C@H](C)NC(=O)CNC(=O)[C@@H](NC(=O)[C@H](Cc1ccccc1)NC(=O)CNC(=O)CNC(=O)[C@@H](N)Cc1ccccc1)[C@@H](C)O)C(=O)N[C@@H](C)C(=O)N[C@@H](CC(N)=O)C(=O)N[C@@H](CCC(N)=O)C(=O)O [nociceptin]
left or right ureteral flow rate [1]: did not increase
forskolin-stimulated cAMP production [2]: inhibits forskolin-stimulated cAMP production
effect of i.c.v. nor-binaltorphimine pretreatment on the diuresis and antinatriuresis produced by the peptide [3]: did not alter
behavioral or sedative effects [4]: did not produce any behavioral or sedative effects
duration of renal responses [4]: approximately 70 min
heart rate [4]: did not alter heart rate
time of peak changes in renal responses after start of infusion [4]: approximately 40 min
urinary sodium excretion ([4]; conscious rats): decrease
urine flow rate ([4]; conscious rats): profound increase
mean arterial pressure ([4]; sustained throughout infusion): slight, but statistically significant decrease
cardiovascular and renal parameters [5]: did not alter any cardiovascular or renal parameter
doses producing increases in urine flow rate, lower than in preliminary studies / Kapusta et al. (17) ([6]; i.v. infusion): approximately 120 fold
baseline systemic arterial pressure and heart rate [6, 14]: did not alter baseline systemic arterial pressure and heart rate
duration of renal responses [6, 14]: approximately 90 min
excretion of urinary sodium (UNA V) [6, 14]: decrease
time of peak renal effect after start of infusion [6, 14]: 30 min
urine flow rate (V) ([6]; i.v. infusion 50 and 166 nanog/Kg/min, conscious rats): dose-dependent increase
response to painful stimuli [7]: hypersensitivity to painful stimuli
systemic vasodepressor activity, anesthetized versus conscious rats ([8]; bolus i.v. injection): greater systemic vasodepressor activity
ability to increase urinary flow rate (V) under anesthesia ([8]; rats anesthetized with sodium pentobarbital, i.v. infusion): inhibited
tachyphylaxis to the cardiovascular and renal responses ([9]; consecutive i.c.v. injection of the same dose (1, 10 or 30 μg)): did not develop
time of peak diuresis ([9]; i.c.v. 1 μg): 30 min
time of peak diuresis ([9]; i.c.v. 10 μg): 40 min
renal response (urine flow rate and urinary sodium excretion) ([9]; i.c.v. 10 μg, naive conscious rats): concurrent diuretic and antinatriuretic response
onset of diuresis compared with dynorphin A ([9]; i.c.v. 10 μg, p<0.05 at time 20 min): significantly delayed
diuretic response ([9]; i.c.v. 1, 10 or 30 μg): profound diuretic response
heart rate, mean arterial pressure and urinary sodium excretion ([9]; i.c.v. 1, 10 or 30 μg, versus group control): significant (p<0.05) decreases
duration of bradycardia ([9]; i.c.v., all doses): approximately 30 minutes
duration of hypotensive response ([9]; i.c.v., all doses): ~40 min
onset of bradycardia and hypotensive response ([9]; i.c.v., all doses (1, 10, 30 μg)): 1 to 3 min
minimum effective i.c.v. dose to evoke a change in urine flow rate and urinary sodium excretion ([9]; i.c.v., preliminary studies): 1 µg
aortic vasorelaxant response in the presence of inhibitors of nitric oxide formation and function ([10]; endothelial cell removal, methylene blue, L-NAME, L-NIO): blocked
vasorelaxant response after cycloxygenase blockade ([10]; meclofenamate): lack of an inhibitory effect
increase in urine flow rate (V) in response to i.v. infusion after L-NAME [11]: significantly inhibited
first-pass uptake or metabolism in the lung [12]: does not undergo significant first-pass uptake or metabolism
decrease of systemic arterial pressure, sensitivity to naloxone [13]: naloxone-insensitive
